Assays:
Experiment in all cases: Field trial, sulfonylurea tolerance (herbicide injury ratings), Balcarce
Format in all cases: in vivo, Helianthus annuus
MUT28 sunflower line = conditions: No injury = 0
From the text: (§1) To evaluate the tolerance of MUT28 sunflower plants to sulfonylurea herbicides, HA89 (wild-type), MUT28, IMISUN-1, and SURES-1 sunflower lines were planted outdoors in Balcarce, Argentina during the growing season in an RCBD field trial with two replications to evaluate the tolerance of MUT28 plants to the sulfonylurea herbicide thifensulfuron (TFS) at 1× and 2× rates. The 1× rates for TFS is 4.4 g a.i./ha.

[1] = tested on: HA89 (wild-type) sunflower line; conditions: No injury = 0
From the text: as §1

SURES-1 sunflower line = conditions: line SURES-1, No injury = 0
From the text: as §1

IMISUN-1 sunflower line = conditions: line IMISUN-1, No injury = 0
From the text: as §1

Compound: COc1nc(C)nc(NC(=O)NS(=O)(=O)c2ccsc2C(=O)O)n1 [thifensulfuron]
- Herbicide Injury Ratings (MUT28 sunflower line; rate 1× (4.4 g a.i./ha)): 30
- Herbicide Injury Ratings (MUT28 sunflower line; rate 2× (1× is 4.4 g a.i./ha)): 42
- Herbicide Injury Ratings ([1]; rate 1× (4.4 g a.i./ha)): 75
- Herbicide Injury Ratings ([1]; rate 2× (1× is 4.4 g a.i./ha)): 75
- Herbicide Injury Ratings (SURES-1 sunflower line; rate 1× (4.4 g a.i./ha)): 5
- Herbicide Injury Ratings (SURES-1 sunflower line; rate 2× (1× is 4.4 g a.i./ha)): 3
- Herbicide Injury Ratings (IMISUN-1 sunflower line; rate 1× (4.4 g a.i./ha)): 20
- Herbicide Injury Ratings (IMISUN-1 sunflower line; rate 2× (1× is 4.4 g a.i./ha)): 75
